Counter-ions that a name gives are not always drawn.
How the values were obtained:
NEP = biological target: T1, NEP (Rattus norvegicus, UniProt P07861); assay: NEP-inhibitory activity (inhibition of [3H]Tyr-Gly-Gly formation from [3H][Leu5]-enkephaline in kidney cortex membranes)
T1 sequence (P07861 1-750): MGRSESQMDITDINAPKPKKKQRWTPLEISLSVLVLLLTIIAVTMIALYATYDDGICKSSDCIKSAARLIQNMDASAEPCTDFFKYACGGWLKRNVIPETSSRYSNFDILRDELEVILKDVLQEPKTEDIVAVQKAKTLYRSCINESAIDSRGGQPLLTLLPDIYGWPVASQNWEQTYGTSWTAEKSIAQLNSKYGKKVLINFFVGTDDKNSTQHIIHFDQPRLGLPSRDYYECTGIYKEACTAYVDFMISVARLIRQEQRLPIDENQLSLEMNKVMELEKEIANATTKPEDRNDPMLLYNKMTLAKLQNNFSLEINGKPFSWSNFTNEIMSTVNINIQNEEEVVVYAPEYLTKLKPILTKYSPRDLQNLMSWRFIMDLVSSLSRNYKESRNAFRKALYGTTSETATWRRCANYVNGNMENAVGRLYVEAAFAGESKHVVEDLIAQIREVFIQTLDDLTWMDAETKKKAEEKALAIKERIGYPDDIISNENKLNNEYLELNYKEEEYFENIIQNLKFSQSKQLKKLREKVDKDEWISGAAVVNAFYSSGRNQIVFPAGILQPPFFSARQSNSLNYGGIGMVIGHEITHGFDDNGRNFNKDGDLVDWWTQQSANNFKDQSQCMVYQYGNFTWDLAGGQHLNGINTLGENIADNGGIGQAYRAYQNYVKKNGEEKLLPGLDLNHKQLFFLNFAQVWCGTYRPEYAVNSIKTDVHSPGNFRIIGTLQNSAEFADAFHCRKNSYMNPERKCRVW

ACE = biological target: T2, ACE (Oryctolagus cuniculus, UniProt P12822); assay: ACE-inhibitory activity (FAPGG hydrolysis, absorbance at 340 nm); assay type: biochemical; details: ACE purified by lung rabbit, FAPGG 0.8 mM, 37°C; compounds of formula I tested in the form of sodium salts
T2 construct: ACE (250 mU/ml purified by lung rabbit, EC 3.4.15.1 SIGMA); purchased SIGMA; host or cells: rabbit lung
T2 sequence (P12822 34-1310): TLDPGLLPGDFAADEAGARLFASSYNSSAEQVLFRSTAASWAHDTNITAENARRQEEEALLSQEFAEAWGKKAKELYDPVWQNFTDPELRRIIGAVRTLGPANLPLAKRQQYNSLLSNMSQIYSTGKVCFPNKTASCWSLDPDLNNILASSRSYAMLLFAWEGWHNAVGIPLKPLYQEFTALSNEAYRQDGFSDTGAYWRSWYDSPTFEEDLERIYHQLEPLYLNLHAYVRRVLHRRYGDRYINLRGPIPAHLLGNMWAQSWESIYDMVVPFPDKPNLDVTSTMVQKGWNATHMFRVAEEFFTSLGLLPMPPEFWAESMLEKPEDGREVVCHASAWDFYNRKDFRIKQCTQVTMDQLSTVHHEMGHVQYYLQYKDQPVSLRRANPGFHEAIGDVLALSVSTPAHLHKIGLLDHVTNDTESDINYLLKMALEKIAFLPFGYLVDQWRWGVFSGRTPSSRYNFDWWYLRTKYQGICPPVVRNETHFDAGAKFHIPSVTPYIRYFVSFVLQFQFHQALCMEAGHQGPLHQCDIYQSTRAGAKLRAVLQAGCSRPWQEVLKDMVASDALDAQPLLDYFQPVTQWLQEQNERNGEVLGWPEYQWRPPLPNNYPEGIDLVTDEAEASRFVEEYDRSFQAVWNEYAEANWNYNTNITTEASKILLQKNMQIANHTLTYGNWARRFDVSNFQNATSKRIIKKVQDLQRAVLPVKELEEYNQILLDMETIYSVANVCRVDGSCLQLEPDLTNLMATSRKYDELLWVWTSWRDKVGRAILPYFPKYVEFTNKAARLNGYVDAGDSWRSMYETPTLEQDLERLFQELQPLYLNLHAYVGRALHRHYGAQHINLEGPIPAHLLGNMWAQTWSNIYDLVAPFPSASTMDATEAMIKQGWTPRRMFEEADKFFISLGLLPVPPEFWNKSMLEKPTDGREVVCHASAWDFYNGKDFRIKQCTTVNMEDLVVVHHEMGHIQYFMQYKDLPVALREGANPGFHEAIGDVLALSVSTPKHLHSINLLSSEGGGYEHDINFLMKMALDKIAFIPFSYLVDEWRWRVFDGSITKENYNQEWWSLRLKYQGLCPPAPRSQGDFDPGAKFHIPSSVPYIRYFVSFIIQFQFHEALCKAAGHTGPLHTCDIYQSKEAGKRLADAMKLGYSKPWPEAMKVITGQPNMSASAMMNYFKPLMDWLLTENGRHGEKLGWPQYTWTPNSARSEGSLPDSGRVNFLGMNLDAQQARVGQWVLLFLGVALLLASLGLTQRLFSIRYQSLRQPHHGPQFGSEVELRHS
Procedure: […] of ACE (250 mU/ml purified by lung rabbit, EC 3.4.15.1 SIGMA) with 50 µl of the compound of formula I or of the reference compounds, were preincubated in thermostated cuvettes at 37°C for 5 minutes.
The reaction was started by adding furylacryloylphenylalanylglycylglycine 0.8 mM (FAPGG-SIGMA).
Contemporaneously, by using a Beckman DU-50 spectrophotometer provided with a program for calculating delta A/minutes and regression coefficients of the enzyme kinetics curves, the absorbance at 340 nm was recorded in continuo for 5 minutes.

Row | NEP-inhibitory activity IC50 (nM) (NEP; membranes from rat kidney cortex, [3H][Leu5]-enkephaline 15 nM, 20 minutes at 30°C, compounds of formula I tested in the form of sodium salts) | SMILES | IC50 (NEP) | IC50 (ACE)
1 | – | CC(C)[C@H](N[C@@H](CCc1ccccc1)C(=O)O)C(=O)N[C@@H](Cc1ccc(-c2ccccc2)cc1)C(=O)O [Compound 10] | 41 nM | 2 nM
2 | – | CC(C)C[C@H](N[C@@H](CC(=O)NCc1ccccc1)C(=O)O)C(=O)N[C@@H](Cc1ccc(-c2ccccc2)cc1)C(=O)O [Compound 20] | 53 nM | 15 nM
3 | – | CC(C)C[C@H](N[C@@H](CCC(=O)Nc1ccccc1)C(=O)O)C(=O)N[C@@H](Cc1ccc(-c2ccccc2)cc1)C(=O)O [Compound 17] | 27 nM | 2.2 nM
4 | – | O=C(O)[C@H](Cc1ccc(-c2ccccc2)cc1)NC(=O)[C@H](Cc1cccs1)N[C@@H](CCc1ccccc1)C(=O)O [Compound 15] | 10 nM | 1.8 nM
5 | not active | C[C@H](CS)C(=O)N1CCC[C@H]1C(=O)O [Captopril, reference compound] | – | –
6 | – | CC(C)C[C@H](N[C@@H](CCc1ccccc1)C(=O)O)C(=O)N[C@@H](Cc1ccc(-c2ccccc2)cc1)C(=O)O [Compound 1, N-[N'-[(1S)-1-carboxy-3-phenyl-propyl]-L-leucyl]-(1.1'-biphenyl-4-yl)-L-alanine disodium salt] | 27.7 nM | 1.5 nM
